Series [1] addresses T1, ATP-dependent translocase ABCB1 (Homo sapiens, UniProt P08183). Kind of series: TP_TRANSPORTER: transepithelial transport (basal to apical) in MDR1-expressing LLC-PK1 cells. In kind it is functional, cell-based. The settings on record: pig.
In series [2] the target is T1, ATP-dependent translocase ABCB1. The series is described as follows: TP_TRANSPORTER: inhibition of Cortisol transepithelial transport (basal to apical) (Cortisol: 0.011? uM, Progesterone: 50 uM) in MDR1-expressing LLC-PK1 cells. The series is classed as functional, cell-based. The settings on record: pig, llc-pk1, 50 µM.

Structures are written as SMILES.

T1 sequence (P08183 whole entry): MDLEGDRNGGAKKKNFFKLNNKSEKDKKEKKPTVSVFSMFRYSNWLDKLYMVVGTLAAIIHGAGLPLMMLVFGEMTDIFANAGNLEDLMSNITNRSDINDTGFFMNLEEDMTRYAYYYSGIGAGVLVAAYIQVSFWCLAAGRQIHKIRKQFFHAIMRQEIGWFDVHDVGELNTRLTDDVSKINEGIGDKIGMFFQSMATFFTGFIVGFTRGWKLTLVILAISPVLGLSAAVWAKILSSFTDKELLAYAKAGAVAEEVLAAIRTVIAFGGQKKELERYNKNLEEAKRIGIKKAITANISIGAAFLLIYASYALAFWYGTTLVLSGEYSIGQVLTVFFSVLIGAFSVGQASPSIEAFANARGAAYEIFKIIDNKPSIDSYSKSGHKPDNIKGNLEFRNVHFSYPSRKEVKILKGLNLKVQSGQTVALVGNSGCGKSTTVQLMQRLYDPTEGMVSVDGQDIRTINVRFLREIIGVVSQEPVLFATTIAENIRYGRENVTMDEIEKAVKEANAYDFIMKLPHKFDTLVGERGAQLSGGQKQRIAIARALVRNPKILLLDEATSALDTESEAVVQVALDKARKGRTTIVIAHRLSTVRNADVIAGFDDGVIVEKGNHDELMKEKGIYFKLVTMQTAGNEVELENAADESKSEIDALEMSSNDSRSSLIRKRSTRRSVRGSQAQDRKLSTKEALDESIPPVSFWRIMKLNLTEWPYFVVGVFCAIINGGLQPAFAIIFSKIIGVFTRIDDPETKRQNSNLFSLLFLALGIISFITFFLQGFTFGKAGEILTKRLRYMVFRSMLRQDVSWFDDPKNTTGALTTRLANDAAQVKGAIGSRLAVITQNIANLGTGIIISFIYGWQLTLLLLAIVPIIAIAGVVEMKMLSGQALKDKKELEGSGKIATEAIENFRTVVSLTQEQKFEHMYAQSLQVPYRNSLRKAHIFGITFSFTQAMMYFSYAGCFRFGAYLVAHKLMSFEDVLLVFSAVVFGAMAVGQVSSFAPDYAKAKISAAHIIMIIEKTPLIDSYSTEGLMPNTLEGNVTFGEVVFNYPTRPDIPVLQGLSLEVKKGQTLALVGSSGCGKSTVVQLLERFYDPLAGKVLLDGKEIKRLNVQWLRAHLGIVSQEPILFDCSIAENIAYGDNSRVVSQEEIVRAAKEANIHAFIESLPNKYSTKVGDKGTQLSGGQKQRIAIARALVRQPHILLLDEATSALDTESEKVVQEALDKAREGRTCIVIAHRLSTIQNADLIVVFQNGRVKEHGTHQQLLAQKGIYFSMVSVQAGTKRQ

Consider `C[C@]12CCC(=O)C=C1CC[C@@H]1[C@@H]2[C@@H](O)C[C@]2(C=O)[C@@H](C(=O)CO)CC[C@@H]12` [ALDOSTERONE], for which the Activity entry in series [1] was “substrate [+]”.
The same measure, in the same setting: for `C[C@]12CCC(=O)C=C1CC[C@@H]1[C@@H]2[C@@H](O)C[C@@]2(C)[C@H]1CC[C@]2(O)C(=O)CO` [HYDROCORTISONE] the value was “substrate [+]”.
Turning to `CC(=O)[C@H]1CC[C@H]2[C@@H]3CCC4=CC(=O)CC[C@]4(C)[C@H]3CC[C@]12C` [PROGESTERONE], the Activity result in series [2] is “inhibitor [+]”; in series [1], “is not a substrate [-]”.

For the origin of these results see ChEMBL document CHEMBL2073871, “Human P-glycoprotein transports cortisol, aldosterone, and dexamethasone, but not progesterone” (J Biol Chem, 1992).
